Like-named read-outs stand apart in the source and are kept apart here.
Tested on: Pyricularia oryzae
Assay type: in vivo
Settings: individual active compound, rice seedlings Tai-Nong 67, protective spray, evaluated 6 days after inoculation

Compound	Efficacy in % of the untreated control (1 ppm in the spray liquor)	Efficacy in % of the untreated control (4 ppm in the spray liquor)
CC1CCN(c2c(-c3c(F)cc(F)cc3F)c(Cl)nc3ncnn23)CC1 [I, 5-chloro-7-(4-methylpiperidin-1-yl)-6-(2,4,6-trifluorophenyl)-[1,2,4]triazolo[1,5-a]pyrimidine]	16%	28%
COCC(=O)N(c1c(C)cccc1C)[C@H](C)C(=O)OC [II (metalaxyl-M), methyl N-(methoxyacetyl)-N-(2,6-xylyl)-D-alaninate]		0%
CC1CCN(c2c(-c3c(F)cccc3Cl)c(Cl)nc3ncnn23)CC1 [comparative compound A]	0%	4%
C[C@H](Nc1c(-c2c(F)cc(F)cc2F)c(Cl)nc2ncnn12)C(F)(F)F [comparative compound B]	4%	40%

Source: patent US20070015770A1 (priority 2003, published 2007)
